SMILES strings stand for the structures.

From patent US20250163043A1 (TRANSTHERA SCIENCES (NANJING), INC., priority 2021, published 2025) come the findings set out here.

Sequence of CDK9/CycT1 (P50750 whole entry): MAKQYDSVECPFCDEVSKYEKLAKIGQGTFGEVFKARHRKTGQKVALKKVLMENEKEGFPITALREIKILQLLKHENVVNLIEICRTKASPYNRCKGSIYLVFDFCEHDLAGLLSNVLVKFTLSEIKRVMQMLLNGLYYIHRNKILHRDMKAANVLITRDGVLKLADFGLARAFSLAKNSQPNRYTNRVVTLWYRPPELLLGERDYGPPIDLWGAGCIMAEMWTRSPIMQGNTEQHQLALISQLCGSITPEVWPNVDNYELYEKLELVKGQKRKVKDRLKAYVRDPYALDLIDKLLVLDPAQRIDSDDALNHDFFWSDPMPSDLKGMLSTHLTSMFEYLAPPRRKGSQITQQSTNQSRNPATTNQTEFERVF
Sequence of CDK9/CycT1 (O60563 whole entry partner): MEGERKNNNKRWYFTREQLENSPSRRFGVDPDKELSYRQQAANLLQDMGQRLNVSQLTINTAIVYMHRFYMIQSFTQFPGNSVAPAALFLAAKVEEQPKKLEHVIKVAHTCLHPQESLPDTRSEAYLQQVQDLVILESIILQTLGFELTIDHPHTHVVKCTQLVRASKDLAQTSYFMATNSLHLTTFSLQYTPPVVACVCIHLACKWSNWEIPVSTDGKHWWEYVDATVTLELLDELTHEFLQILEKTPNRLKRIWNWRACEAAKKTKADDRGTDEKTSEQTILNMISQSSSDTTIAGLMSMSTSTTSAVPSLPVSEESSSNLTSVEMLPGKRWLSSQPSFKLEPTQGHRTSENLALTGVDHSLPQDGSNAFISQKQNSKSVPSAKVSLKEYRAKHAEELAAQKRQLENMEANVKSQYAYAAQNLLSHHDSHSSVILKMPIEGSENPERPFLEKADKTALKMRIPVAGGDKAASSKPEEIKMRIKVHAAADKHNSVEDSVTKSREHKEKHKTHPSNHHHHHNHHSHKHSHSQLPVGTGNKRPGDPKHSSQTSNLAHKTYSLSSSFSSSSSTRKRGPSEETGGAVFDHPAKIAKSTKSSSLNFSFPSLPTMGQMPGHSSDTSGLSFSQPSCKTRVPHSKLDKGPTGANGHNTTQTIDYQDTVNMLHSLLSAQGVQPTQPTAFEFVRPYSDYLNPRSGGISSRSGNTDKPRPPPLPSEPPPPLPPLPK

This assay deals with CDK9/CycT1 (Homo sapiens, UniProt P50750). In words: Off-chip mobility shift assay (MSA) on CDK9/CycT1. The format is biochemical. On the set-up: Full-length human CDK9 [1-372(end) amino acids of; host or cells: baculovirus expression system. Particulars: 4-point concentration (0.0016, 0.008, 0.04, 0.2 uM), ATP 10 μM, reaction time 5 hours, read-out: CDK9/CycT1/nM (inhibitory activity). Here is the method:
Prepare 100× concentrated Test compound stock solutions with DMSO. Then, Dilute the solution 25 times with Assay Buffer (20 mM HEPES, 0.01% Triton X-100, 2 mM DTT, pH7.5) to prepare 4× test compound solutions.
Test compounds were evaluated at 4-point concentration (0.0016, 0.008, 0.04, 0.2 uM). • 1) Mix 5 μL of 4× test compound solution with 5 μL of 4× substrate/ATP/Metal solution and 10 μL of 2× kinase solution in 384-well polypropylene plate. Incubate for 5 hours at room temperature. • 2) Add 70 μL of Termination Buffer (QuickScout Screening Assist MSA; Carna Biosciences) to stop the reaction. • 3) Separate and detect unphosphorylated/phosphorylated substrate peptides in the reactant using LabChip system (Perkin Elmer). • 4) Evaluate kinase reaction from product ratio (P/(P+S)) calculated by peak height of unphosphorylated substrate(S) and peak height of phosphorylated substrate (P).
As for `CC(C)Nc1nc([C@@H](C)O)cc2cnc(N[C@H]3CC[C@H](N)CC3)nc12` [Compound 76, (R)-1-(2-(((1r,4R)-4-aminocyclohexyl)amino)-8-(isopropylamino)pyrido[3,4-d]pyrimidin-6-yl)ethan-1-ol], the IC50 came out at 10 nM.

On to `CNC(=O)[C@H]1CC[C@@H](Nc2ncc3cc([C@@H](C)O)nc(NC(C)C)c3n2)C1` [Compound 79, (1S,3R)-3-((6-((R)-1-hydroxyethyl)-8-(isopropylamino)pyrido[3,4-d]pyrimidin-2-yl)amino)-N-methylcyclopentane-1-carboxamide], for which the IC50 came to 23 nM.

Take `CC(C)Nc1nc([C@@H](C)O)cc2cnc(N[C@H]3CC[C@H](NC4COC4)CC3)nc12` [Compound 80, (R)-1-(8-(isopropylamino)-2-(((1r,4R)-4-(oxetan-3-ylamino)cyclohexyl)amino)pyrido[3,4-d]pyrimidin-6-yl)ethan-1-ol]: the IC50 is 12 nM.

For the compound `CC(C)Nc1nc([C@@H](C)O)cc2cnc(NC[C@H]3CC[C@H](N)CC3)nc12` [Compound 82, (R)-1-(2-((((1r,4R)-4-aminocyclohexyl)methyl)amino)-8-(isopropylamino)pyrido[3,4-d]pyrimidin-6-yl)ethan-1-ol], the IC50 is 63 nM.

Consider `CC(C)Nc1nc([C@@H](C)O)cc2cnc(NCC3CCNCC3)nc12` [Compound 84, (R)-1-(8-(isopropylamino)-2-((piperidin-4-ylmethyl)amino)pyrido[3,4-d]pyrimidin-6-yl)ethan-1-ol], for which the IC50 was found to be 47 nM.

For `CC(C)Nc1nc([C@@H](C)O)cc2cnc(NCCCO)nc12` [Compound 85, (R)-3-((6-(1-hydroxyethyl)-8-(isopropylamino)pyrido[3,4-d]pyrimidin-2-yl)amino)propan-1-ol], the IC50 is 64 nM.

For `CC(C)Nc1nc([C@@H](C)O)cc2cnc(NC(=O)[C@@H]3CCCNC3)cc12` [Compound 86, (R)—N-(7-((R)-1-hydroxyethyl)-5-(isopropylamino)-2,6-naphthyridin-3-yl)piperidine-3-carboxamide], the IC50 worked out at 50 nM.

Take `CC(=O)c1cc2cnc(N[C@H]3CC[C@H](O)CC3)nc2c(NC(C)C)n1` [Compound 88, 1-(2-(((1r,4r)-4-hydroxycyclohexyl)amino)-8-(isopropylamino)pyrido[3,4-d]pyrimidin-6-yl)ethan-1-one]: the IC50 stood at 44 nM.

Take `CC(C)Nc1nccc2cnc(N[C@H]3CC[C@H](O)CC3)nc12` [Compound 89, (1r,4r)-4-((8-(isopropylamino)pyrido[3,4-d]pyrimidin-2-yl)amino)cyclohexan-1-ol]: the IC50 stood at 24 nM.

For the compound `CC(C)Nc1nc(C(F)F)cc2cnc(N[C@H]3CC[C@H](O)CC3)nc12` [Compound 91, (1r,4r)-4-((6-(difluoromethyl)-8-(isopropylamino)pyrido[3,4-d]pyrimidin-2-yl)amino)cyclohexan-1-ol], the IC50 came to 6 nM.

Take `Cc1cc2cnc(N[C@H]3CC[C@H](O)CC3)nc2c(NC(C)C)n1` [Compound 92, (1r,4r)-4-((8-(isopropylamino)-6-methylpyrido[3,4-d]pyrimidin-2-yl)amino)cyclohexan-1-ol]: the IC50 was found to be 64 nM.

As to `C#Cc1cc2cnc(N[C@H]3CC[C@H](O)CC3)nc2c(NC(C)C)n1` [Compound 93, (1r,4r)-4-((6-ethynyl-8-(isopropylamino)pyrido[3,4-d]pyrimidin-2-yl)amino)cyclohexan-1-ol], the IC50 was 7 nM.

As for `CC(C)Nc1nc(C#N)cc2cnc(N[C@H]3CC[C@H](O)CC3)nc12` [Compound 94, 2-(((1r,4r)-4-hydroxycyclohexyl)amino)-8-(isopropylamino)pyrido[3,4-d]pyrimidine-6-carbonitrile], the IC50 came out at 4 nM.

Take `CC(C)Nc1nc(C2COC2)cc2cnc(N[C@H]3CC[C@H](O)CC3)nc12` [Compound 95, (1r,4r)-4-((8-(isopropylamino)-6-(oxetan-3-yl)pyrido[3,4-d]pyrimidin-2-yl)amino)cyclohexan-1-ol]: the IC50 was 34 nM.

Take `CC(C)Nc1nc(CO)cc2cnc(N[C@H]3CC[C@H](O)CC3)nc12` [Compound 97, (1r,4r)-4-((6-(hydroxymethyl)-8-(isopropylamino)pyrido[3,4-d]pyrimidin-2-yl)amino)cyclohexan-1-ol]: the IC50 was determined as 17 nM.

As for `CC(=O)N[C@@H]1CCC[C@H](C(=O)Nc2cc3c(NC(C)C)nc([C@@H](C)O)cc3cn2)C1` [Compound 98, (1S,3R)-3-acetamido-N-(7-((R)-1-hydroxyethyl)-5-(isopropylamino)-2,6-naphthyridin-3-yl)cyclohexane-1-carboxamide], the IC50 came to 28 nM.

Consider `C=Cc1cc2cnc(NC(=O)[C@H]3CCC[C@@H](NC(C)=O)C3)cc2c(NC(C)C)n1` [Compound 99, (1S,3R)-3-acetamido-N-(5-(isopropylamino)-7-vinyl-2,6-naphthyridin-3-yl)cyclohexane-1-carboxamide], for which the IC50 was determined as 29 nM.

Regarding `CC(C)Nc1nc([C@@H](C)O)cc2cnc(N[C@H]3CC[C@H](NC4COC4)CC3)cc12` [Compound 101, (R)-1-(1-(isopropylamino)-7-(((1r,4R)-4-(oxetan-3-ylamino)cyclohexyl)amino)-2,6-naphthyridin-3-yl)ethan-1-ol], the IC50 turned out to be 15 nM.

For the compound `C[C@@H](O)c1nc(NC(C)(C)C)c2nc(N[C@H]3CC[C@H](O)CC3)ncc2c1Cl` [Compound 102, (1R,4r)-4-((8-(tert-butylamino)-5-chloro-6-((R)-1-hydroxyethyl)pyrido[3,4-d]pyrimidin-2-yl)amino)cyclohexan-1-ol], the IC50 came out at 10 nM.
